We go through 3 compounds from paper PMC8317467 (FASEB journal : official publication of the Federation of …, 2020).

For data set [1], the target named is T1, F439Y-ABCG2 (Homo sapiens, UniProt Q9UNQ0, F439Y).
T1 sequence (Q9UNQ0 1-655 F439Y): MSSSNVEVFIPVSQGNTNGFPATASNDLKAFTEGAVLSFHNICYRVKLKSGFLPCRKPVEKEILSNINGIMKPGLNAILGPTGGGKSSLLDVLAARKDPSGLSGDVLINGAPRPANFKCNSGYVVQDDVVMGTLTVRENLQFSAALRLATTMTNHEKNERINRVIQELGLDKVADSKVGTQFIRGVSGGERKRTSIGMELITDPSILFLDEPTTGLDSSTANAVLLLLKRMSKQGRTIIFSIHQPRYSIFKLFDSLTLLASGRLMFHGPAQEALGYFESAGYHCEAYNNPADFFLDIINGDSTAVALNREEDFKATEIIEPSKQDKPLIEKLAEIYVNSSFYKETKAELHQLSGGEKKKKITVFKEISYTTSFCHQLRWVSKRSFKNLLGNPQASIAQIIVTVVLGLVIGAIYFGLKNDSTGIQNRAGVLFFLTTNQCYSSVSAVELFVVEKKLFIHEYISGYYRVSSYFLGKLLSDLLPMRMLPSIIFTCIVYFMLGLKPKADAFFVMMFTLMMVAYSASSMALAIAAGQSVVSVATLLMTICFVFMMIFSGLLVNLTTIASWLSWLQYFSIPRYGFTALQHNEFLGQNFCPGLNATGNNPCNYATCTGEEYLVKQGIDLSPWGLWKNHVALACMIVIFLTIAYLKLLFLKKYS
As to the kind of experiment: Transport assay. It counts as cell-based. The conditions noted are these: 0.5 μM of Hoechst 33342, ± 10 μM of Lapatinib, 120 min.

Data set [2] addresses T1, F439Y-ABCG2. Description: Membrane thermal shift, MEF membrane vesicles, F439Y. It counts as binding. The conditions noted are these: 10 μM of Hoechst 33342, 60 min at 37°C.
Another data set concerns the target T2, WT-ABCG2 (Homo sapiens, UniProt Q9UNQ0).
T2 sequence (Q9UNQ0 1-655): T1 sequence (Q9UNQ0 1-655 F439Y) with Y439F
As to the kind of experiment: Membrane thermal shift, MEF membrane vesicles, WT-ABCG2. It counts as binding. The settings on record: 10 μM of ligand, 60 min at 37°C, heated 3 min at 65°C.

In data set [3] the target is T3, F439W-ABCG2 (Homo sapiens, UniProt Q9UNQ0, F439W).
T3 sequence (Q9UNQ0 1-655 F439W): T1 sequence (Q9UNQ0 1-655 F439Y) with Y439W
Description: Transport assay. It counts as cell-based. The settings on record: 0.5 μM of Hoechst 33342, ± 10 μM of Lapatinib, 120 min.

Data set [4] deals with T3, F439W-ABCG2. Description: Membrane thermal shift, MEF membrane vesicles, F439W. It counts as binding. The conditions noted are these: 10 μM of Hoechst 33342, 60 min at 37°C.
The target in a further data set is T4, F439A-ABCG2 (Homo sapiens, UniProt Q9UNQ0, F439A).
T4 sequence (Q9UNQ0 1-655 F439A): T1 sequence (Q9UNQ0 1-655 F439Y) with Y439A
Description: Transport assay. It counts as cell-based. The conditions noted are these: 0.5 μM substrate.

A further data set concerns the target T5, N436A-ABCG2 (Homo sapiens, UniProt Q9UNQ0, N436A).
T5 sequence (Q9UNQ0 1-655 N436A): T1 sequence (Q9UNQ0 1-655 F439Y) with N436A, Y439F
As to the kind of experiment: Membrane thermal shift, MEF membrane vesicles, N436A. The conditions noted are these: 10 μM, 60 min at 37°C, heated 3 min at 67°C. It is filed as binding.

Data set [5] concerns the target T6, human ABCG2 (Homo sapiens, UniProt Q9UNQ0).
T6 sequence (Q9UNQ0 1-655): T1 sequence (Q9UNQ0 1-655 F439Y) with Y439F
Description: Membrane thermal shift, HEK293-hABCG2 membrane vesicles. It counts as binding. The conditions noted are these: 5 μM, 60 min at 37°C, heated 3 min at 62°C.

In data set [6] the target is T6, human ABCG2. As to the kind of experiment: PhA transport inhibition. It is filed as cell-based.
In data set [7] the target is T6, human ABCG2. Description: Cellular thermal shift assay. It counts as binding.
A further data set relates to F439A. The settings on record: ref 11 (Manolaridis et al); cited from earlier work.
The subject of the next data set is N436A. The conditions noted are these: ref 11 (Manolaridis et al); cited from earlier work.

Residue numbers refer to the chain shown, from its start. “Also recorded” adds a separate entry of the source.

Regarding `CCOc1ccc(-c2nc3ccc(-c4nc5ccc(N6CCN(C)CC6)cc5[nH]4)cc3[nH]2)cc1` [Hoechst 33342], the “transport of substrate by F439Y-ABCG2” value on F439Y-ABCG2 [1] is recorded as “transport activity similar to WT-ABCG2”. Besides, at F439Y-ABCG2 [2], the “thermal stabilization of F439Y-ABCG2 by ligand” value is recorded as “stabilized”. Further, the “thermal stabilization of WT-ABCG2 by ligand” value at WT-ABCG2 is given as “stabilized”. Further, on F439W-ABCG2 [3], the “transport of substrate by F439W-ABCG2” value is recorded as “transport activity similar to WT-ABCG2”. Moreover, on F439W-ABCG2 [4], the “thermal stabilization of F439W-ABCG2 by ligand” value is given as “stabilized”. For the same compound, the “transport of substrate by F439A-ABCG2” value on F439A-ABCG2 is “incapable of transporting; also recorded: no net ABCG2 mediated transport”.

The term IC50 denotes the concentration that inhibits the measured activity by half. A high value points to a need for much substance. By EC50 is commonly meant the concentration that produces a half-maximal response. For `CS(=O)(=O)CCNCc1ccc(-c2ccc3ncnc(Nc4ccc(OCc5cccc(F)c5)c(Cl)c4)c3c2)o1` [Lapatinib], the “thermal stabilization of N436A by ligand” value at N436A-ABCG2 is reported as “partially stabilized”. Besides, the “stabilizing ABCG2 against thermal denaturation, rank in words” value at human ABCG2 [5] is “most effective”. For the same compound, the IC50 against human ABCG2 [6] was determined as 85 nM. For the same compound, at human ABCG2 [7], the EC50 was roughly 69 nM. Moreover, the “potency in inducing ABCG2 thermal shift among the KIs, in words” value on human ABCG2 [7] (dose-response, 67°C) is “most potent”.

As for `C[C@]12CC[C@@H]3c4ccc(OS(=O)(=O)O)cc4CC[C@H]3[C@@H]1CCC2=O` [estrone-3-sulfate], in the data set with F439A, the “transport of substrate by F439A” value was “could not transport”. Besides, the “transport of substrate by N436A” value with N436A is on record as “incapable”.
